The record followed here is US20250092039A1, “GLUTARIMIDE-CONTAINING PAN-KRAS-MUTANT DEGRADER COMPOUNDS AND USES THEREOF” (Tiger Biotherapeutics Inc., priority 2022, published 2025).

The target of one series is KRAS-G12V/RAF1 (Homo sapiens (Human), UniProt P01116, G12V). The series can be described thus: KRAS/RAF1 binding inhibition assay (AlphaScreen). The essentials: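 IC50 comes from variable-slope nonlinear fits of % inhibition (relative to DMSO) against inhibitor concentration. The AlphaScreen signal tracks the interaction of GppNHp-bound KRAS G12V with the RAF1 RBD after 60 min at 4° C with compound in 2% DMSO final.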
A general note: Alpha assays give light when donor and acceptor beads are brought close together.

The next series deals with KRAS G12V (Homo sapiens (Human), UniProt P01116, G12V). The series can be described thus: KRAS G12V degradation in SW620 cells (Western blot, DC50). The conditions noted are these: 24 hours. The series is classed as cell-based. In short, it runs like this:
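KRAS levels were quantified by fluorescent Western blot as percent of the DMSO control after 24 h of compound exposure at 37° C in homozygous KRAS G12V SW620 cells. A four-parameter variable-slope fit of the dose-response gave the half-maximal degradation concentration.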
In general terms: Immunoblotting shows a protein as a band on a membrane.

For another series, the system named is SW620 cells. The series can be described thus: 3D cell growth inhibition of SW620 cells carrying endogenous KRAS G12V mutation (CellTiter-Glo 3D, GI50). The series is classed as cell-based. The conditions noted are these: Homo sapiens, SW-620, 144 h, read-out: SW620 3D cell growth GI50. The essentials: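 […], compound exposure lasted 6 days at 37° C, added the day after plating from DMSO stocks over a concentration range. Cells: SW620, KRAS G12V, 3D culture.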
In general terms: ATP-based viability assays read luminescence as a measure of living cells.

Series [1] in a line: Pharmacokinetics following single intravenous and oral gavage dosing (AUC0-24h). The series is classed as in vivo. The conditions noted are these: mouse, plasma, male CD-1 mice. The procedure:
Compounds disclosed herein were studied for animal tolerability and pharmacokinetics following single intravenous (iv) and oral gavage (po) dosing to male CD-1 mice. For each compound in each dosing route, 3 mice were used with iv dosing volume of 5 mL/kg and po dosing volume of 10 mL/kg. The compounds were formulated in 10% DMSO, 30% PEG400, 60% aqueous solution containing 20% 2-hydroxypropyl-β-cyclodextrin. Blood sampling time points for iv dosing were 0.083, 0.25, 0.5, 1, 2, 4, 8 and 24 h. The sampling time points for po dosing were 0.25, 0.5, 1, 2, 4, 6, 8 and 24 h. Mice activities were monitored and recorded immediately following the dosing. The prepared plasma samples were analyzed using LC/MS/MS on AB Sciex Triple Quad 5500+ system. The PK parameters were determined by non-compartmental analysis using WinNonlin (Version 8.0).

Usually IC50 stands for the concentration needed to halve the response being measured. Broadly, the DC50 is the midpoint of the concentration-degradation curve. Low readings indicate a more potent degrader, high ones a less potent degrader. A word on the GI50: it is the concentration that inhibits growth by half. Broadly, the AUC(0-t) is the area under the concentration-time curve up to a stated or last time point. Low readings indicate less exposure, high ones more exposure.

Read-outs that look alike come from different tables or passages of the source. Bounds are passed on as bounds.

Sequence of KRAS-G12V/RAF1 (P01116-2 other isoform, or with tags, fused parts or gaps G12V): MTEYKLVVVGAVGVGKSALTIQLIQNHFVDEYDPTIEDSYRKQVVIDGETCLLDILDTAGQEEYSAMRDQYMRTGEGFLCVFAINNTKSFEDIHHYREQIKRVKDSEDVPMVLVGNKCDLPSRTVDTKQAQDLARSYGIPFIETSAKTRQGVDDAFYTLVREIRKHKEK
Sequence of KRAS G12V (P01116-2 other isoform, or with tags, fused parts or gaps G12V): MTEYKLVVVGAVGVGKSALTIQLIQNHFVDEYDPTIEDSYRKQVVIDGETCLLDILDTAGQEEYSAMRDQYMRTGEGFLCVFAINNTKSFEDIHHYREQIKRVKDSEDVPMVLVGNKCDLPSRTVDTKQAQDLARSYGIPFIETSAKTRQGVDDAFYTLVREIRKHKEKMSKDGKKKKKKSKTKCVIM

The compound `CCc1c(F)ccc2cc(O)cc(-c3ncc4c(N5CCC[C@@](C)(O)C5)nc(OCC5(CN6CCC(C)(CN7CCN(C8CCN(c9ccc%10c(c9)CN(C9CCC(=O)NC9=O)C%10=O)CC8)CC7)CC6)CC5)nc4c3F)c12` (stereo partly drawn) [Compound 39, 3-(5-(4-(4-((1-((1-(((7-(8-ethyl-7-fluoro-3-hydroxynaphthalen-1-yl)-8-fluoro-4-((R)-3-hydroxy-3-methylpiperidin-1-yl)pyrido[4,3-d]pyrimidin-2-yl)oxy)methyl)cyclopropyl)methyl)-4-methylpiperidin-4-yl)methyl)piperazin-1-yl)piperidin-1-yl)-1-oxoisoindolin-2-yl)piperidine-2.6-dione] showed an IC50 at KRAS-G12V/RAF1 below 0.02 µM. Also, at KRAS G12V, the DC50 is below 0.001 µM. In addition, the GI50 with SW620 cells (SW620 cells, 6 days) was below 0.01 µM. Besides, the AUC(0-t) in series [1] (single oral dose 30 mg/Kg) came out at 399 ng·h/mL.

Turning to `CCc1c(F)ccc2cc(O)cc(-c3ncc4c(N5CCCC6(CCO6)C5)nc(OCC5(CN6CCC(F)(CN7CCN(c8ccc9c(c8)CN([C@H]8CCC(=O)NC8=O)C9=O)CC7)CC6)CC5)nc4c3F)c12` (stereo partly drawn) [Compound 41, (3S)-3-(5-(4-((1-((1-(((7-(8-ethyl-7-fluoro-3-hydroxynaphthalen-1-yl)-8-fluoro-4-(1-oxa-6-azaspiro[3.5]nonan-6-yl)pyrido[4,3-d]pyrimidin-2-yl)oxy)methyl)cyclopropyl)methyl)-4-fluoropiperidin-4-yl)methyl)piperazin-1-yl)-1-oxoisoindolin-2-yl)piperidine-2,6-dione], the IC50 on KRAS-G12V/RAF1 was in the range of 0.02 to 0.2 µM. This compound showed a DC50 at KRAS G12V of 0.001 to 0.01 µM. Also, in the series with SW620 cells (SW620 cells, 6 days), the GI50 is below 0.01 µM. For the same compound, the AUC(0-t) in series [1] (single oral dose 30 mg/Kg) is 1850 ng·h/mL.

Consider `CCc1c(F)ccc2cc(O)cc(-c3ncc4c(N5CCC[C@@](C)(O)C5)nc(OCC5(CN6CCC(C)(CN7CC8(CCN(c9ccc%10c(c9)CN([C@H]9CCC(=O)NC9=O)C%10=O)CC8)C7)CC6)CC5)nc4c3F)c12` [Compound 40, (3S)-3-(5-(2-[(1-{[1-({[7-(8-ethyl-7-fluoro-3-hydroxynaphthalen-1-yl)-8-fluoro-4-[(3R)-3-hydroxy-3-methylpiperidin-1-yl]pyrido[4,3-d]pyrimidin-2-yl]oxy}methyl)cyclopropyl]methyl}-4-methylpiperidin-4-yl)methyl]-2,7-diazaspiro[3.5]nonan-7-yl}-1-oxo-3H-isoindol-2-yl)piperidine-2,6-dione], for which the IC50 at KRAS-G12V/RAF1 was below 0.02 µM. Also, on KRAS G12V, the DC50 was below 0.001 µM. Further, the GI50 in the series with SW620 cells (SW620 cells, 6 days) is below 0.01 µM. This compound also had an AUC(0-t) in series [1] (single oral dose 30 mg/Kg) of 652 ng·h/mL.

On to `CCc1c(F)ccc2cc(O)cc(-c3ncc4c(N5CCC[C@@](C)(O)C5)nc(OCC5(CN6CCC7(CC6)CC(N6CCN(c8ccc9c(c8)CN([C@H]8CCC(=O)NC8=O)C9=O)CC6)C7)CC5)nc4c3F)c12` [Compound 121, (S)-3-(5-(4-(7-((1-(((7-(8-ethyl-7-fluoro-3-hydroxynaphthalen-1-yl)-8-fluoro-4-((R)-3-hydroxy-3-methylpiperidin-1-yl)pyrido[4,3-d]pyrimidin-2-yl)oxy)methyl)cyclopropyl)methyl)-7-azaspiro[3.5]nonan-2-yl)piperazin-1-yl)-1-oxoisoindolin-2-yl)piperidine-2,6-dione], for which the IC50 at KRAS-G12V/RAF1 is below 0.02 µM. For the same compound, the DC50 at KRAS G12V is below 0.001 µM. Also, the GI50 with SW620 cells (SW620 cells, 6 days) is below 0.01 µM. The compound also had an AUC(0-t) in series [1] (single oral dose 50 mg/Kg) of 598 ng·h/mL.

`CCc1c(F)ccc2cc(O)cc(-c3ncc4c(N5CCC[C@@](C)(O)C5)nc(OCC5(CN6CCC7(CC6)CC(F)(CN6CCN(c8ccc9c(c8)CN([C@H]8CCC(=O)NC8=O)C9=O)CC6)C7)CC5)nc4c3F)c12` [Compound 134, (S)-3-(5-(4-((7-((1-(((7-(8-ethyl-7-fluoro-3-hydroxynaphthalen-1-yl)-8-fluoro-4-((R)-3-hydroxy-3-methylpiperidin-1-yl)pyrido[4,3-d]pyrimidin-2-yl)oxy)methyl)cyclopropyl)methyl)-2-fluoro-7-azaspiro[3.5]nonan-2-yl)methyl)piperazin-1-yl)-1-oxoisoindolin-2-yl)piperidine-2,6-dione] showed an IC50 on KRAS-G12V/RAF1 of 0.02 to 0.2 µM. At KRAS G12V, this compound displayed a DC50 below 0.001 µM. In the series with SW620 cells, the GI50 is below 0.01 µM. For the same compound, the AUC(0-t) in series [1] (single oral dose 30 mg/Kg) was determined as 982 ng·h/mL; in series [1] (single oral dose 50 mg/Kg) it was 1940 ng·h/mL.

As to `CCc1c(F)ccc2cc(O)cc(-c3ncc4c(N5CCC[C@@](C)(O)C5)nc(OCC5(CN6CCC(OC7CCC8(CC7)CN(c7ccc9c(c7)CN(C7CCC(=O)NC7=O)C9=O)C8)CC6)CC5)nc4c3F)c12` (stereo partly drawn) [Compound 184, 3-[5-[7-[[1-[[1-[[7-(8-ethyl-7-fluoro-3-hydroxy-1-naphthyl)-8-fluoro-4-[(3R)-3-hydroxy-3-methyl-1-piperidyl]pyrido[4,3-d]pyrimidin-2-yl]oxymethyl]cyclopropyl]methyl]-4-piperidyl]oxy]-2-azaspiro[3.5]nonan-2-yl]-1-oxo-isoindolin-2-yl]piperidine-2,6-dione], the IC50 on KRAS-G12V/RAF1 was above 0.2 µM. Further, the DC50 on KRAS G12V was below 0.001 µM. Further, the GI50 in the series with SW620 cells (SW620 cells, 6 days) was below 0.01 µM. The AUC(0-t) in series [1] (single oral dose 30 mg/Kg) came to 12500 ng·h/mL.

For `CCc1c(F)ccc2cc(O)cc(-c3ncc4c(N5CCC[C@]6(CCO6)C5)nc(OCC5(CN6CCC(CN7CCN(c8cc(F)c(C9CCC(=O)NC9=O)c(F)c8)CC7)CC6)CC5)nc4c3F)c12` (stereo partly drawn) [Compound 216, 3-(4-(4-((1-((1-(((7-(8-ethyl-7-fluoro-3-hydroxynaphthalen-1-yl)-8-fluoro-4-((S)-1-oxa-6-azaspiro[3.5]nonan-6-yl)pyrido[4,3-d]pyrimidin-2-yl)oxy)methyl)cyclopropyl)methyl)piperidin-4-yl)methyl)piperazin-1-yl)-2,6-difluorophenyl)piperidine-2,6-dione], the IC50 on KRAS-G12V/RAF1 was above 0.2 µM. The DC50 at KRAS G12V was 0.001 to 0.01 µM. For the same compound, the GI50 in the series with SW620 cells (SW620 cells, 6 days) is below 0.01 µM. This compound also showed an AUC(0-t) in series [1] (single oral dose 15 mg/Kg) of 2140 ng·h/mL.

`CCc1c(F)ccc2cc(O)cc(-c3ncc4c(N5CCC[C@]6(CCO6)C5)nc(OCC5(CN6CCC7(CC6)CC(F)(CN6CCN(c8ccc9c(c8)CN([C@H]8CCC(=O)NC8=O)C9=O)CC6)C7)CC5)nc4c3F)c12` [Compound 214, (S)-3-(5-(4-((7-((1-(((7-(8-ethyl-7-fluoro-3-hydroxynaphthalen-1-yl)-8-fluoro-4-((S)-1-oxa-6-azaspiro[3.5]nonan-6-yl)pyrido[4,3-d]pyrimidin-2-yl)oxy)methyl)cyclopropyl)methyl)-2-fluoro-7-azaspiro[3.5]nonan-2-yl)methyl)piperazin-1-yl)-1-oxoisoindolin-2-yl)piperidine-2,6-dione] showed an IC50 at KRAS-G12V/RAF1 of 0.02 to 0.2 µM. Moreover, at KRAS G12V, the DC50 was below 0.001 µM. In addition, the GI50 in the series with SW620 cells (SW620 cells, 6 days) was below 0.01 µM. In series [1] (single oral dose 30 mg/Kg), the AUC(0-t) came out at 1460 ng·h/mL.

Turning to `CCc1c(F)ccc2cc(O)cc(-c3ncc4c(N5CCC[C@]6(CCO6)C5)nc(OCC5(CN6CCC(F)(CN7CCN(c8ccc9c(c8)CN([C@H]8CCC(=O)NC8=O)C9=O)CC7)CC6)CC5)nc4c3F)c12` [Compound 86, (S)-3-(5-(4-((1-((1-(((7-(8-ethyl-7-fluoro-3-hydroxynaphthalen-1-yl)-8-fluoro-4-((S)-1-oxa-6-azaspiro[3.5]nonan-6-yl)pyrido[4,3-d]pyrimidin-2-yl)oxy)methyl)cyclopropyl)methyl)-4-fluoropiperidin-4-yl)methyl)piperazin-1-yl)-1-oxoisoindolin-2-yl)piperidine-2,6-dione], the IC50 on KRAS-G12V/RAF1 is 0.02 to 0.2 µM. This compound also yielded a half-maximal degradation concentration (DC50) on KRAS G12V below 0.001 µM. Moreover, the GI50 with SW620 cells (SW620 cells, 6 days) is below 0.01 µM. In series [1] (single oral dose 30 mg/Kg), this compound came in with an AUC(0-t) of 1320 ng·h/mL.

Compound `CCc1c(F)ccc2cc(O)cc(-c3ncc4c(N5CCC[C@@](C)(O)C5)nc(OCC5(CN6CC(F)(CN7CC8(CCN(c9ccc%10c(c9)CN([C@H]9CCC(=O)NC9=O)C%10=O)CC8)C7)C6)CC5)nc4c3F)c12` [Compound 68, (S)-3-(5-(2-((1-((1-(((7-(8-ethyl-7-fluoro-3-hydroxynaphthalen-1-yl)-8-fluoro-4-((R)-3-hydroxy-3-methylpiperidin-1-yl)pyrido[4,3-d]pyrimidin-2-yl)oxy)methyl)cyclopropyl)methyl)-3-fluoroazetidin-3-yl)methyl)-2,7-diazaspiro[3.5]nonan-7-yl)-1-oxoisoindolin-2-yl)piperidine-2,6-dione] had an IC50 at KRAS-G12V/RAF1 above 0.2 µM. Also, the DC50 at KRAS G12V lay in the range of 0.001 to 0.01 µM. Further, the GI50 in the series on SW620 cells (SW620 cells, 6 days) was below 0.01 µM. Further, the AUC(0-t) in series [1] (single oral dose 30 mg/Kg) is 901 ng·h/mL.

The compound `CCc1c(F)ccc2cc(O)cc(-c3ncc4c(N5CCC[C@@](C)(O)C5)nc(OCC5(CN6CCC(C)(CN7CCC(N8CCN(c9ccc%10c(c9)CN([C@H]9CCC(=O)NC9=O)C%10=O)CC8)CC7)CC6)CC5)nc4c3F)c12` [Compound 213, (S)-3-(5-(4-(1-((1-((1-(((7-(8-ethyl-7-fluoro-3-hydroxynaphthalen-1-yl)-8-fluoro-4-((R)-3-hydroxy-3-methylpiperidin-1-yl)pyrido[4,3-d]pyrimidin-2-yl)oxy)methyl)cyclopropyl)methyl)-4-methylpiperidin-4-yl)methyl)piperidin-4-yl)piperazin-1-yl)-1-oxoisoindolin-2-yl)piperidine-2,6-dione] came in with an IC50 on KRAS-G12V/RAF1 below 0.02 µM. Moreover, at KRAS G12V, the DC50 was below 0.001 µM. In the series on SW620 cells (SW620 cells, 6 days), the GI50 is below 0.01 µM. Also, the AUC(0-t) in series [1] (single oral dose 30 mg/Kg) came to 1360 ng·h/mL.
